Assay results from ChEMBL document CHEMBL4425183, “Gold catalyzed double condensation reaction: Synthesis, antimicrobial and cytotoxicity of spirooxindole derivatives” (Bioorg Med Chem Lett, 2016).
Values after ≈ are worked out from the molar mass of the structure shown.

Assays:
COLO 320 = assay: cells; conditions: Homo sapiens, COLO 320, read-out: GI
Description: Cytotoxicity against human COLO320 cells assessed as cell growth inhibition at 156 uM by MTT assay relative to control

Candida albicans [1] = assay: Antifungal activity against Candida albicans MTCC 227 at 1 mg/disc after 48 hrs at 28 degC by disc diffusion method; type: functional
Malassezia pachydermatis = assay: Antifungal activity against Malassezia pachydermatis at 1 mg/disc after 48 hrs at 28 degC by disc diffusion method; type: functional
Candida albicans [2] = assay: Antifungal activity against Candida albicans MTCC 227 after 48 to 72 hrs at 28 degC by two fold serial dilution method; type: functional
Staphylococcus aureus [3] = assay: Antibacterial activity against methicillin-resistant Staphylococcus aureus after 24 hrs at 37 degC by two fold serial dilution method; type: functional
Klebsiella pneumoniae [4] = assay: Antibacterial activity against Klebsiella pneumoniae MTCC 109 at 1 mg/disc after 24 hrs at 37 degC by disc diffusion method; type: functional
Salmonella typhimurium [5] = assay: Antibacterial activity against Salmonella typhimurium MTCC 1251 at 1 mg/disc after 24 hrs at 37 degC by disc diffusion method; type: functional, Salmonella enterica subsp. enterica serovar Typhimurium
Bacillus subtilis [6] = assay: Antibacterial activity against Bacillus subtilis MTCC 441 after 24 hrs at 37 degC by two fold serial dilution method; type: functional; conditions: MTCC 441, 24 h
Staphylococcus aureus [7] = assay: Antibacterial activity against Staphylococcus aureus MTCC 96 at 1 mg/disc after 24 hrs at 37 degC by disc diffusion method; type: functional
Staphylococcus aureus [8] = assay: Antibacterial activity against Staphylococcus aureus MTCC 96 after 24 hrs at 37 degC by two fold serial dilution method; type: functional; conditions: MTCC 96, 24 h
[9] = system: Staphylococcus epidermidis; assay: Antibacterial activity against Staphylococcus epidermidis MTCC 3615 at 1 mg/disc after 24 hrs at 37 degC by disc diffusion method; type: functional
Micrococcus luteus [10] = assay: Antibacterial activity against Micrococcus luteus MTCC 106 after 24 hrs at 37 degC by two fold serial dilution method; type: functional; conditions: MTCC 106, 24 h
Shigella flexneri [11] = assay: Antibacterial activity against Shigella flexneri MTCC 1457 at 1 mg/disc after 24 hrs at 37 degC by disc diffusion method; type: functional
Micrococcus luteus [12] = assay: Antibacterial activity against Micrococcus luteus MTCC 106 at 1 mg/disc after 24 hrs at 37 degC by disc diffusion method; type: functional
Staphylococcus aureus [13] = assay: Antibacterial activity against methicillin-resistant Staphylococcus aureus at 1 mg/disc after 24 hrs at 37 degC by disc diffusion method; type: functional
Klebsiella aerogenes [14] = assay: Antibacterial activity against Enterobacter aerogenes MTCC 111 after 24 hrs at 37 degC by two fold serial dilution method; type: functional; conditions: MTCC 111, 24 h
Salmonella typhimurium [15] = assay: Antibacterial activity against Salmonella typhimurium MTCC 1251 after 24 hrs at 37 degC by two fold serial dilution method; type: functional, Salmonella enterica subsp. enterica serovar Typhimurium; conditions: Salmonella enterica, MTCC 1251, 24 h
Klebsiella pneumoniae [16] = assay: Antibacterial activity against Klebsiella pneumoniae MTCC 109 after 24 hrs at 37 degC by two fold serial dilution method; type: functional; conditions: MTCC 109, 24 h
[17] = system: Staphylococcus epidermidis; assay: Antibacterial activity against Staphylococcus epidermidis MTCC 3615 after 24 hrs at 37 degC by two fold serial dilution method; type: functional; conditions: MTCC 3615, 24 h
Shigella flexneri [18] = assay: Antibacterial activity against Shigella flexneri MTCC 1457 after 24 hrs at 37 degC by two fold serial dilution method; type: functional; conditions: MTCC 1457, 24 h
Bacillus subtilis [19] = assay: Antibacterial activity against Bacillus subtilis MTCC 441 at 1 mg/disc after 24 hrs at 37 degC by disc diffusion method; type: functional
Klebsiella aerogenes [20] = assay: Antibacterial activity against Enterobacter aerogenes MTCC 111 at 1 mg/disc after 24 hrs at 37 degC by disc diffusion method; type: functional

`O=P1(N(CCCl)CCCl)NCCCO1` (configuration not stated) [CYCLOPHOSPHAMIDE ANHYDROUS] showed an inhibition of growth at 156 µM (COLO 320) of 90%.

For `CC(=O)N1CCN(c2ccc(OCC3COC(Cn4ccnc4)(c4ccc(Cl)cc4Cl)O3)cc2)CC1` (configuration not stated) [KETOCONAZOLE], the “inhibition zone (IZ)” value (Candida albicans [1]) was 28 mm, the “inhibition zone (IZ)” value (Malassezia pachydermatis) was 26 mm and the MIC (Candida albicans [2]) was 25 µM (≈ 13.3 µg/mL).

`CN[C@@H]1[C@H](O[C@H]2[C@H](O[C@H]3[C@H](O)[C@@H](O)[C@H](N=C(N)N)[C@@H](O)[C@@H]3N=C(N)N)O[C@@H](C)[C@]2(O)C=O)O[C@@H](CO)[C@H](O)[C@H]1O` [STREPTOMYCIN] was tested, and the MIC (Staphylococcus aureus [3]) was 6.25 µM (≈ 3.63 µg/mL), the “inhibition zone (IZ)” value (Klebsiella pneumoniae [4]) was 20 mm and the “inhibition zone (IZ)” value (Salmonella typhimurium [5]) was 18 mm. For the same compound, the MIC (Bacillus subtilis [6]) was 25 µM (≈ 14.5 µg/mL), the “inhibition zone (IZ)” value (Staphylococcus aureus [7]) was 14 mm and the MIC (Staphylococcus aureus [8]) was 6.25 µM (≈ 3.63 µg/mL). For the same compound, the “inhibition zone (IZ)” value [9] was 25 mm, the MIC (Micrococcus luteus [10]) was 6.25 µM (≈ 3.63 µg/mL) and the “inhibition zone (IZ)” value (Shigella flexneri [11]) was 30 mm. The “inhibition zone (IZ)” value (Micrococcus luteus [12]) was 26 mm, the “inhibition zone (IZ)” value (Staphylococcus aureus [13]) was 30 mm and the MIC (Klebsiella aerogenes [14]) was 25 µM (≈ 14.5 µg/mL). It also gave an MIC (Salmonella typhimurium [15]) of 30 µM (≈ 17.4 µg/mL), an MIC (Klebsiella pneumoniae [16]) of 6.25 µM (≈ 3.63 µg/mL) and an MIC [17] of 25 µM (≈ 14.5 µg/mL). The MIC (Shigella flexneri [18]) was 6.25 µM (≈ 3.63 µg/mL), the “inhibition zone (IZ)” value (Bacillus subtilis [19]) was 25 mm and the “inhibition zone (IZ)” value (Klebsiella aerogenes [20]) was 22 mm.
